Reference: patent publication US4571405A, “Anti-allergic chromone- or thiochromone-5-oxamic acid derivatives, compositions, and method of use therefor” (Miles Laboratories, Inc., priority 1984, dated 1986)
Where “and” joins values, the source holds several entries; their conditions need not be identical. Equal values may be shown once. Read-outs that look alike come from different tables or passages of the source.

How the values were obtained:
[1] = test system: passive cutaneous anaphylaxis reaction (PCA reaction); experiment: Passive cutaneous anaphylaxis reaction (PCA reaction), intravenous, rats; format: in vivo, Male Lister-Hooded rats; conditions: for ED50: Rattus norvegicus, iv
Protocol: (§1) The antiallergic activity of the compounds of the present invention was determined by a passive cutaneous anaphylaxis reaction (PCA reaction) which was conducted as described in Life Sciences, 1, p. 465 (1963) and Immunology, 12, p. 113 (1967) both of which are incorporated herein by reference. Male Lister-Hooded rats were depilated and injected intradermally with a dilution of rat serum containing IgE antibody against ovalbumin. Twenty-four hours later the rats were challenged with an intravenous injection of the antigen (ovalbumin) and a blue indicator dye. The intensity of the passive cutaneous anaphylactic reaction was determined by observing the size of discrete blue sites (from the indicator) on the backs of the rats. Simultaneous with the challenge, one group of the rats was injected (intravenously) with various concentrations of test compounds (i.e., compounds of formula I), in order to determine the 50 percent inhibitory concentration (IC50) for each of said compounds tested. The other group of rats was administered intravenous sodium cromoglycate (SCG), a known antiallergic agent and thus served as a positive control. The results of this test are set forth in Table 1 where the IC50 for the test compounds and SCG are expressed irn micromoles per kiligram of body weight.

PCA reaction = experiment: Oral activity in PCA reaction (intragastric dose), rats; format: in vivo, Male Lister-Hooded rats; conditions: 30 mg/kg intragastrically, thirty minutes prior to antigen challenge, relative to control; for inhibition at 30 mg/kg: Rattus norvegicus, po, read-out: Percent Inhibition of PCA Reaction
Protocol: as §1
Following substantially the same technique as described above, the oral activity of various test compounds (i.e., compounds of formula I) was determined. Thirty minutes prior to the antigen challenge described above, a dose of 30 mg/kg of one of the test compounds was administered intragastrically and the percent inhibition of the percutaneous anaphylactic reaction was determined (as compared to control animals where no test compound was administered). The results of this test are set forth in Table 2 and are expressed as percent inhibition of anaphylaxis relative to control.

mast cells = experiment: Inhibition of antigen-induced histamine (spasmogen) release from passively sensitized peritoneal mast cells; format: cell-based, rats
Protocol: Peritoneal mast cells passively sensitized to antigen (dinitrophenyl-ovalbumin) 24 hours previously were obtained by lavage. Pools of cells were prepared from ten or more rats and aliquots (100 μl) were dispensed into polyethylene tubes. To each tube was added one of the test compounds at a concentration shown in Table 3 together with a constant dose (1 μg) of antigen (dinitrophenyl-bovine serum albumin). Each treatment was repeated in at least three tubes. All of the tubes were incubated at 37° C. for 10 minutes. The mast cells were sedimented by centrifugation and the supernatant fluid removed. The concentration of histamine released as a result of the addition of antigen was determined fluorimetrically and comparisons made with the concentration of histamine released in the absence of drug using the formula: [formula] where d=histamine release in presence of test compound,
a=histamine release in presence of antigen along
s=histamine release in presence of saline or drug vehicle (i.e., control).
The results of this test are set forth in Table 3 and are expressed as a percent inhibition of spasmogen release for each concentration (in moles) of the test compound utilized in the above-described procedure.

[2] = simultaneous with antigen (ovalbumin) challenge, per kilogram of body weight, read-out: INHIBITION OF PCA REACTION IC50, Compound of Example No.

Row | SMILES | ED50 [1, 2] [µmol/kg] | inhibition at 30 mg/kg (PCA reaction) [%] | Percent Inhibition of Mast Cell Histamine Release (mast cells; 10^-2 (moles)) [%] | Percent Inhibition of Mast Cell Histamine Release (mast cells; 10^-3 (moles)) [%] | Percent Inhibition of Mast Cell Histamine Release (mast cells; 10^-4 (moles)) [%] | Percent Inhibition of Mast Cell Histamine Release (mast cells; 10^-5 (moles)) [%] | Percent Inhibition of Mast Cell Histamine Release (mast cells; 10^-6 (moles)) [%] | further results
1 | CC1(C)CCC2=C(C1)C(=O)c1c(NC(=O)C(=O)O)cccc1S2(=O)=O [Example VI, Sodium 2,3-(4',4'-dimethylcyclohexeno)thiochromone-5-oxamate-1,1-dioxide] | 16.5 | 27 | 95.1 | 86.9 | 44.1 | 3.7 | 4.4 | 
2 | O=C1c2ccccc2S(=O)(=O)c2cc(-c3nnn[nH]3)ccc21 [doxantrazole, reference compound] |  |  |  |  |  |  |  | Percent Inhibition of PCA Reaction (PCA reaction): ten
3 | O=C(O)C(=O)Nc1cccc2oc3c(c(=O)c12)CCCC3 [Example I, Sodium 2,3-cyclohexenochromone-5-oxamate] | 10.4 | 27 | 85.7 | 78.6 | 10.9 | 12.6 | 12.0 | 
4 | CCCc1c2c(c(O)c3c(=O)cc(C(=O)O)oc13)CCCC2 [proxicromil, reference compound] |  |  |  |  |  |  |  | Percent Inhibition of PCA Reaction (PCA reaction): ten
5 | CCC1CCc2oc3cccc(NC(=O)C(=O)O)c3c(=O)c2C1 (stereo not shown) [II, Sodium 2,3-(4'-ethylcyclohexeno)chromone-5-oxamate] | 15.5 | 46 |  |  |  |  |  | 
6 | O=C(O)c1cc(=O)c2c(OCC(O)COc3cccc4oc(C(=O)O)cc(=O)c34)cccc2o1 [SCG, sodium cromoglycate, reference compound] |  |  |  |  |  |  |  | ED50 ([1]; intravenous sodium cromoglycate positive control, run alongside each test compound, read-out: INHIBITION OF PCA REACTION IC50, SCG): 3.6 µmol/kg; INHIBITION OF PCA REACTION IC50, SCG ([1]; intravenous sodium cromoglycate positive control, run alongside each test compound): 2.1 micromoles/kilogram and 1.8 micromoles/kilogram and 2.4 micromoles/kilogram
7 | Cc1oc2cccc(NC(=O)C(=O)O)c2c(=O)c1C [IV, Sodium 2,3-dimethylchromone-5-oxamate] | 5 | 39 |  |  |  |  |  | 
8 | CC1(C)CCc2oc3cccc(NC(=O)C(=O)O)c3c(=O)c2C1 [III, Sodium 2,3-(4',4'-dimethylcyclohexeno)chromone-5-oxamate] | 9.6 | 60 | 92.9 | 95.1 | 57.6 | 10.6 | 8.2 | 
9 | CC1(C)CCc2sc3cccc(NC(=O)C(=O)O)c3c(=O)c2C1 [Example V, Sodium 2,3-(4',4'-dimethylcyclohexeno)thiochromone-5-oxamate] | 10 | 14 | 96.7 | 74.8 | 40.8 | 2.7 | 38.7 | 
10 | O=C(O)C(=O)Nc1cccc2oc3c(c(=O)c12)CCCC3 [2,3cyclohexenochromone-5-oxamic acid, 2,3-cyclohexenochromone-5-oxamic acid] |  |  |  |  |  |  |  | INHIBITION OF PCA REACTION IC50, Compound of Example No. ([1]; intravenous, simultaneous with antigen (ovalbumin) challenge, per kilogram of body weight, listed as 2,3cyclohexeneochromone-5-oxamic acid): 11.2 micromoles/kilogram
